# Data taken from patent US20260250257A1, “ANTIBACTERIAL AND SYNERGISTIC ACTIVE COMPOUND AND USE THEREOF” (EAST CHINA UNIVERSITY OF SCIENCE AND TECHNOLOGY, priority 2023, published 2026).
# Legend:
# [1] = test system: ATCC19606 strains (Acinetobacter baumannii); assay: In vivo synergistic bactericidal activity with polymyxin E, mouse bacteremia model; design: species or system Balb/c mice; settings: for survival rate / synergistic effects with Polymyxin E in vivo: Polymyxin E 0.5 mg/kg + compound 16 mg/kg, Balb/c mice infected with ATCC19606; for survival rate: intraperitoneal
# Description: Representative compounds I-14 and I-82 were tested for their in vivo synergistic bactericidal activities when combined with polymyxin E. The specific method is as follows:
# Normal Balb/c mice (6-8 weeks old) were used, and the animals were randomly divided into four groups (5 mice per group): • I: Control group • II: Polymyxin E at 0.5 mg/kg body weight • III: Polymyxin E at 0.5 mg/kg body weight+Compound I-14 at 16 mg/kg • IV: Polymyxin E at 0.5 mg/kg body weight+Compound I-82 at 16 mg/kg
# Freshly cultured ATCC19606 strains (logarithmic growth phase) were washed with saline, adjusted to an OD600 of ~1.0, and mixed at 1:1 (v/v) with 10% porcine mucin. Each mouse was intraperitoneally administered 500 μl of the mixture. 1 hour later, an intraperitoneal injection was given again, with the control group receiving only saline.
# [2] = test system: ATCC9027 strain (Pseudomonas aeruginosa); assay: Broth microdilution, antibacterial activity of the compound used alone; format: cell-based; settings: read-out: Antibacterial activity of the compound of Formula I, ATCC9027
# Text: (§1) The broth microdilution method was used to test the antibacterial effects of the compounds of the present invention against various Gram-negative bacterial strains when used alone.
# [3] = test system: ATCC25922 strain (Escherichia coli); assay: as above; format: cell-based; settings: read-out: Antibacterial activity of the compound of Formula I, ATCC25922
# Text: as §1
# [4] = test system: ATCC13883 strain (Klebsiella pneumoniae); assay: as above; format: cell-based; settings: read-out: Antibacterial activity of the compound of Formula I, ATCC13883
# Text: as §1
# [5] = test system: ATCC19606 strain (Acinetobacter baumannii); assay: as above; format: cell-based; settings: read-out: Antibacterial activity of the compound of Formula I, ATCC19606
# Text: as §1
# [6] = test system: ATCC9027 strain (Pseudomonas aeruginosa); assay: Checkerboard antibacterial synergistic activity test with polymyxin E (FIC); format: cell-based; design: key: FIC≤0.5 synergy; 0.5–1 additive; 1–2 indifferent; ≥2 antagonism; settings: combined with polymyxin E
# Method in brief: (§2)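 First, two-fold series of polymyxin E (16–0.015 μg/ml) and compound (256–4 μg/ml) were made in MH broth. Next, combinations went into a 96-well grid, bacterial liquid was added, and plates sat at 37° C. for 16 h. Finally, FIC was computed and classed (≤0.5 synergistic).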
# [7] = test system: ATCC25922 strain (Escherichia coli); assay: as above; format: cell-based; design: key: FIC≤0.5 synergy; 0.5–1 additive; 1–2 indifferent; ≥2 antagonism; settings: combined with polymyxin E
# Method in brief: as §2
# [8] = test system: ATCC13883 strain (Klebsiella pneumoniae); assay: as above; format: cell-based; design: key: FIC≤0.5 synergy; 0.5–1 additive; 1–2 indifferent; ≥2 antagonism; settings: combined with polymyxin E
# Method in brief: as §2
# [9] = test system: ATCC19606 strain (Acinetobacter baumannii); assay: as above; format: cell-based; design: key: FIC≤0.5 synergy; 0.5–1 additive; 1–2 indifferent; ≥2 antagonism; settings: combined with polymyxin E
# Method in brief: as §2
# [10] = test system: clinical strains of Acinetobacter baumannii; assay: MIC of polymyxin E against polymyxin E-resistant clinical strains; format: cell-based
# Text: (§3) Compound I-82 of the present invention was used as the representative compound and tested against clinical strains of Acinetobacter baumannii. […] The selected A. baumannii strains were isolated from hospital clinical samples and preserved in the laboratory for research purposes.
# [11] = test system: clinical strains of Acinetobacter baumannii; assay: Synergistic effect (FIC) on inhibiting clinical strains of Acinetobacter baumannii; format: cell-based; settings: for FIC: with polymyxin E
# Description: Polymyxin E was diluted in sterile MH broth medium to concentrations of 16, 8, 4, 2, 1, 0.5, 0.25, 0.125, 0.0625, 0.031, and 0.015 μg/ml, and the drug to be tested was diluted to concentrations of 256, 128, 64, 32, 16, 8, and 4 μg/ml. According to the checkerboard method, combinations of the drug to be tested and polymyxin at different concentrations in ascending order were placed into a 96-well plate, and corresponding blank control groups were set up. 50 μl of the drug solution was added to each well, then 100 μl of bacterial liquid was added, and incubated in a 37° C. incubator for 16 hours. […] Calculation and judgment criteria:
# Fractional Inhibitory Concentration (FIC) is calculated as follows: […]
# Judgment criteria: FIC≤0.5: synergistic effect; 0.5<FIC<1: additive effect; 1<FIC<2: indifferent effect; FIC≥2: antagonistic effect.
# as §3
Molecule,survival rate ([1]; Day 5),synergistic effects with Polymyxin E in vivo [1],MIC [2],MIC [3],MIC [4],MIC [5],Synergistic activity (FIC value) ATCC9027 [6],Synergistic activity (FIC value) ATCC25922 [7],Synergistic activity (FIC value) ATCC13883 [8],Synergistic activity (FIC value) ATCC19606 [9],other results
CC(C)(C)c1cc(-c2csc(N=C(N)N)n2)cc(C(C)(C)C)c1O [Compound I-14],80%,synergistic effects,256 µg/mL,256 µg/mL,256 µg/mL,256 µg/mL,0.53,0.38,0.31,0.13,
polymyxin E,,,,,,,,,,,"therapeutic effect on bacteremia in mice ([1]; Polymyxin E alone 0.5 mg/kg, Day 5, all mice died): no therapeutic effects; MIC ([10]; strain aba39): 64 µg/mL; MIC ([10]; strain aba pmrA): 256 µg/mL"
Cc1ccc(Oc2ccccc2-c2csc(N=C(N)N)n2)c(C)c1 [Compound I-82],above 60%,synergistic effects,256 µg/mL,256 µg/mL,256 µg/mL,256 µg/mL,0.28,0.18,0.16,0.03,Synergistic effects against clinical strains of A. baumannii ([11]; clinical strains with various resistance profiles): broad-spectrum synergistic effects; FIC ([11]; strain aba 30): 0.08; FIC ([11]; strain aba 39 (polymyxin E-resistant)): 0.13; FIC ([11]; strain aba 1611): 0.09; FIC ([11]; strain aba 1613): 0.13; FIC ([11]; strain aba 1617): 0.08; FIC ([11]; strain aba 1638): 0.02; FIC ([11]; strain aba 1645): 0.16; FIC ([11]; strain aba 4201): 0.09; FIC ([11]; strain aba 4230): 0.06; FIC ([11]; strain aba 6359): 0.09; FIC ([11]; strain aba 6380): 0.14; FIC ([11]; strain aba 6382): 0.09; FIC ([11]; strain aba 6410): 0.06; FIC ([11]; strain aba mia): 0.05; FIC ([11]; strain aba pmrA (polymyxin E-resistant)): 0.16
